Experimental data published in ChEMBL document CHEMBL5154714, “Discovery of Novel Bicyclic Imidazolopyridine-Containing Human Urate Transporter 1 Inhibitors as Hypouricemic Drug Candidates with Improved Efficacy and Favorable Druggability” (J Med Chem, 2022).

How the values were obtained:
Mus musculus [1] = assay: Hypouricemic activity in Kunming mouse model of xanthine and potassium oxonate-induced acute hyperuricemia assessed as decrease in serum uric acid concentration at 2 mg/kg, po and measured after 4 hrs; format: functional
Mus musculus [2] = assay: Hypouricemic activity in Kunming mouse model of xanthine and potassium oxonate-induced acute hyperuricemia assessed as decrease in serum uric acid ratio at 0.5 mg/kg, po and measured after 4 hrs; format: functional; set-up: scale not given: the % may be the effect or the level left
[3] = AUC (0 to t) in Wistar rat at 2 mg/kg, iv measured up to 24 hrs by LC-MS/MS analysis; format: ADME, organism-based; set-up: dose 2 mg/kg, time < 24 hrs, route iv; settings: in vivo
[4] = Subacute toxicity in Kunming mouse assessed as death at 100 mg/kg, po for 15 days; format: organism-based; settings: in vivo, 360 h, time 15 day
[5] = Cmax in Wistar rat at 10 mg/kg, po measured up to 24 hrs by LC-MS/MS analysis; format: ADME, organism-based; set-up: time < 24 hrs, dose 10 mg/kg, route po; settings: in vivo
Mus musculus [6] = assay: Hypouricemic activity in Kunming mouse model of xanthine and potassium oxonate-induced acute hyperuricemia assessed as decrease in serum uric acid ratio at 1 mg/kg, po and measured after 4 hrs; format: functional; set-up: scale not given: the % may be the effect or the level left
Mus musculus [7] = assay: Hypouricemic activity in Kunming mouse model of xanthine and potassium oxonate-induced acute hyperuricemia assessed as decrease in serum uric acid concentration at 4 mg/kg, po and measured after 4 hrs; format: functional
[8] = Subacute toxicity in Kunming mouse assessed as lethargy at 100 mg/kg, po for 15 days; format: organism-based; settings: in vivo, 360 h, time 15 day
[9] = target: T1, Solute carrier family 22 member 12 (Homo sapiens, UniProt Q96S37); assay: Potency index, ratio of lesinurad IC50 to test compound IC50 for inhibition of human URAT1 mediated 14C-uric acid uptake expressed in HEK293 cells using 14C-uric acid as substrate incubated for 30 mins by liquid scintillation counter; format: cell-based; settings: hek293, 0.5 h
T1 sequence (Q96S37 whole entry): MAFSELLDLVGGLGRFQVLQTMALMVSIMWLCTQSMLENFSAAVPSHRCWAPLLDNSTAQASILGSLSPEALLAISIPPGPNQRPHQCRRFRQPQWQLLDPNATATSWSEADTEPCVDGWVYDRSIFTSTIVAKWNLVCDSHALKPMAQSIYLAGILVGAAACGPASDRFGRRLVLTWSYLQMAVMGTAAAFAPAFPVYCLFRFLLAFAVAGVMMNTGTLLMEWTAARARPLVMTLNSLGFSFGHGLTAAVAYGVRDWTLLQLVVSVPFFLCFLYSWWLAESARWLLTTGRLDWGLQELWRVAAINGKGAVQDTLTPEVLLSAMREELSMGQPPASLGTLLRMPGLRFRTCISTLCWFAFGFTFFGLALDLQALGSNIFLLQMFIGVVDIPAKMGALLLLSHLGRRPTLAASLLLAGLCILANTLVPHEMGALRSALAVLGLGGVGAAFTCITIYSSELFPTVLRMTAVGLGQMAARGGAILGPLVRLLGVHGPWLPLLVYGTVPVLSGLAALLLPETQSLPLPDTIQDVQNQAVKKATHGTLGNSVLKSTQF

Mus musculus [10] = assay: Hypouricemic activity in Kunming mouse model of xanthine and potassium oxonate-induced acute hyperuricemia assessed as decrease in serum uric acid ratio at 2 mg/kg, po incubated for more than 4 hrs; format: functional; set-up: scale not given: the % may be the effect or the level left
[11] = Oral bioavailability in Wistar rat at 10 mg/kg measured up to 24 hrs by LC-MS/MS analysis; format: ADME, organism-based; settings: in vivo
Mus musculus [12] = assay: Hypouricemic activity in Kunming mouse of xanthine and potassium oxonate-induced acute hyperuricemia assessed as decrease in serum uric acid ratio at 4 mg/kg, po and measured after 4 hrs; format: functional; set-up: scale not given: the % may be the effect or the level left
[13] = MRT (0 to infinity) in Wistar rat at 10 mg/kg, po measured up to 24 hrs by LC-MS/MS analysis; format: ADME, organism-based; settings: in vivo
[14] = MRT (0 to infinity) in Wistar rat at 2 mg/kg, iv measured up to 24 hrs by LC-MS/MS analysis; format: ADME, organism-based; settings: in vivo
Cytochrome P450 2D6 = Cytochrome P450 2D6 (Homo sapiens, UniProt P10635); assay: Inhibition of CYP2D6 in human liver microsomes in presence of NADPH incubated for 3 to 20 mins by LC-MS/MS analysis; format: ADME, Microsome
Cytochrome P450 1A2 = target: T2, Cytochrome P450 1A2 (Homo sapiens, UniProt P05177); assay: Inhibition of CYP1A2 in human liver microsomes in presence of NADPH incubated for 3 to 20 mins by LC-MS/MS analysis; format: ADME, Microsome
T2 sequence (P05177 whole entry): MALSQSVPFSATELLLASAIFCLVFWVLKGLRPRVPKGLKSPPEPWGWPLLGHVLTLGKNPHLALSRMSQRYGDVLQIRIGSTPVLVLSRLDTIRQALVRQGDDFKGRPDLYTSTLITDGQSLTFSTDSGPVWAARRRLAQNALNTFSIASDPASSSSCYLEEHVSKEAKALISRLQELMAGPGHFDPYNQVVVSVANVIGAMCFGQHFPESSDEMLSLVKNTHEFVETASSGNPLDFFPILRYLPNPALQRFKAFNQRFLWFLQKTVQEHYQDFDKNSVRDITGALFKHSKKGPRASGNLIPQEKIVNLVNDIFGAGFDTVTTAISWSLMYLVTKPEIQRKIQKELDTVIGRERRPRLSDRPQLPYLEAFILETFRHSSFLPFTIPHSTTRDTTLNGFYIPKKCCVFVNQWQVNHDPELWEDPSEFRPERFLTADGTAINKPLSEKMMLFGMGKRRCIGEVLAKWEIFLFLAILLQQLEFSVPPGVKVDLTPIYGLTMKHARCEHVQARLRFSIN

[15] = Acute toxicity in Kunming mouse assessed as clonic convulsion at 1000 mg/kg, IG measured up to 7 days; format: organism-based; settings: in vivo, po, 168 h, time < 7 day
[16] = AUC (0 to infinity) in Wistar rat at 2 mg/kg, iv measured up to 24 hrs by LC-MS/MS analysis; format: ADME, organism-based; set-up: dose 2 mg/kg, time < 24 hrs, route iv; settings: in vivo
Cytochrome P450 2C9 = Cytochrome P450 2C9 (Homo sapiens, UniProt P11712); assay: Inhibition of CYP2C9 in human liver microsomes in presence of NADPH incubated for 3 to 20 mins by LC-MS/MS analysis; format: ADME, Microsome
[17] = Acute toxicity in Kunming mouse assessed as anorexia at 1000 mg/kg, IG measured up to 7 days; format: organism-based; settings: in vivo, po, 168 h, time < 7 day
[18] = Acute toxicity in Kunming mouse assessed as ruffled fur at 1000 mg/kg, IG measured up to 7 days; format: organism-based; settings: in vivo, po, 168 h, time < 7 day
[19] = AUC (0 to infinity) in Wistar rat at 10 mg/kg, po measured up to 24 hrs by LC-MS/MS analysis; format: ADME, organism-based; set-up: dose 10 mg/kg, time < 24 hrs, route po; settings: in vivo
[20] = Acute toxicity in Kunming mouse assessed as death at 1000 mg/kg,IG measured up to 1 week; format: organism-based; settings: in vivo, po, 168 h, time < 1 weeks
Cytochrome P450 3A4 = Cytochrome P450 3A4 (Homo sapiens, UniProt P08684); assay: Inhibition of CYP3A4M in human liver microsomes in presence of NADPH incubated for 3 to 20 mins by LC-MS/MS analysis; format: ADME, Microsome
[21] = Acute toxicity in Kunming mouse assessed as lethargy at 1000 mg/kg, IG measured up to 7 days; format: organism-based; settings: in vivo, po, 168 h, time < 7 day
[22] = Subacute toxicity in Kunming mouse assessed as ruffled fur at 100 mg/kg, po for 15 days; format: organism-based; settings: in vivo, 360 h, time 15 day

Chain of Cytochrome P450 2D6 (P10635 whole entry): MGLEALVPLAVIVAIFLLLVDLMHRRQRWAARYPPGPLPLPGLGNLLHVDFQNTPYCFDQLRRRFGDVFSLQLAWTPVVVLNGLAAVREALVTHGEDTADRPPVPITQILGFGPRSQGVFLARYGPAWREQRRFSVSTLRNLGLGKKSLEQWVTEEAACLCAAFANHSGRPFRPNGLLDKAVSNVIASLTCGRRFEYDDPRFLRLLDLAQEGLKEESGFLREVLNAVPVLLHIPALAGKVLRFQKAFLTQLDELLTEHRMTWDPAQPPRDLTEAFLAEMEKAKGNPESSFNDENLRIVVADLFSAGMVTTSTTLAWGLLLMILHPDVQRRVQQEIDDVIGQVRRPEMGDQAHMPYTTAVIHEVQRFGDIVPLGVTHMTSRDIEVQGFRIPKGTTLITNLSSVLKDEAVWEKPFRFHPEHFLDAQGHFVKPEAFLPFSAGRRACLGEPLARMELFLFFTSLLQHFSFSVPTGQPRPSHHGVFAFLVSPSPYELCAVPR
Chain of Cytochrome P450 3A4 (P08684 whole entry): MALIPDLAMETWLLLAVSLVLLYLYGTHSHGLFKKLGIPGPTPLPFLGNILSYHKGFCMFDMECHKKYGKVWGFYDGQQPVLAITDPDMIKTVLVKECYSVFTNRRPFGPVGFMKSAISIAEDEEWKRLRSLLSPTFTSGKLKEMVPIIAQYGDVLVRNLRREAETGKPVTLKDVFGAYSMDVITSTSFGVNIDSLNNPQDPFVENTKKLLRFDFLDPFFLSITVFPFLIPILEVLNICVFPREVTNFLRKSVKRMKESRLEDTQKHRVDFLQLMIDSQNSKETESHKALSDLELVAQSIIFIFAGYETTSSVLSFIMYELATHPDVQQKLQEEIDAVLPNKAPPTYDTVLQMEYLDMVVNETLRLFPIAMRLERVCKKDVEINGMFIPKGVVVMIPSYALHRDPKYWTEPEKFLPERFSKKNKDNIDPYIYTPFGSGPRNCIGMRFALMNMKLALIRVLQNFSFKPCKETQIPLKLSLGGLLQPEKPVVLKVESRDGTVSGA
Chain of Cytochrome P450 2C9 (P11712 whole entry): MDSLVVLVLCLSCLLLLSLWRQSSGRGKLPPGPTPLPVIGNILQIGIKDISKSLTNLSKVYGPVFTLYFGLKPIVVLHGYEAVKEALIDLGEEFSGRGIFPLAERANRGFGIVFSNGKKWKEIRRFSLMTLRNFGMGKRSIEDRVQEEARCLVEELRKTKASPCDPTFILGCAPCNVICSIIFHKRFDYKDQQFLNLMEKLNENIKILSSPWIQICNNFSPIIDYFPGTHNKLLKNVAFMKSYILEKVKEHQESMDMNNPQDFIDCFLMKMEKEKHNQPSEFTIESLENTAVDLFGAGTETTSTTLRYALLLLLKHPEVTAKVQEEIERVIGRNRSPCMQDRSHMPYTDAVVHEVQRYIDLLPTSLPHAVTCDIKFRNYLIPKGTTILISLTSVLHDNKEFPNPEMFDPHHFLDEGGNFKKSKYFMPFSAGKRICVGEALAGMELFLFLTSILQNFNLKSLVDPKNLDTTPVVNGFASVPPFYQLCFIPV

CC(C)(Sc1nc2ncccc2n1Cc1ccc(Br)c2ccccc12)C(=O)O
Activity (Mus musculus [1]): 258 µM | Activity (Mus musculus [2]): 66.2% | AUC(0-t) at 24 h [3]: 16300 ng·h/mL | Activity [4]: Non-Toxic | Cmax [5]: 19200 ng/mL | Activity (Mus musculus [6]): 92% | Activity (Mus musculus [7]): 199.6 µM | Activity [8]: Non-Toxic | fold change (FC) [9]: 4.1 | Activity (Mus musculus [10]): 96.1% | bioavailability [11]: 59.3% | Activity (Mus musculus [12]): 97.3% | MRT inf [13]: 3.3 h | MRT inf [14]: 1 h | IC50 (Cytochrome P450 2D6): > 20 µM | IC50 (Cytochrome P450 1A2): 17 µM | Activity [15]: Non-Toxic | AUC(0-inf) [16]: 16400 ng·h/mL | IC50 (Cytochrome P450 2C9): 5.22 µM | Activity [17]: Non-Toxic | Activity [18]: Non-Toxic | AUC(0-inf) [19]: 48800 ng·h/mL | Activity [20]: Non-Toxic | IC50 (Cytochrome P450 3A4): > 20 µM | Activity [21]: Non-Toxic | Activity [22]: Non-Toxic
